Test results published in patent publication US9427482B2, “Agents for clearing biomolecules from circulation” (KONINKLIJKE PHILIPS N.V., priority 2010, dated 2016).

Tests used:
LS174T xenografts [1] = test: Biodistribution with single and repeated dose of clearing agent 12 (Example 7); type: in vivo, mice
Protocol: (§1) LS174T tumor model. The human colon cancer cell line LS174T was obtained from the ATCC and maintained in Eagle's minimal essential medium (Sigma) supplemented with 10% heat inactivated fetal calf serum (Gibco), penicillin (100 U/mL), streptomycin (100 μg/mL) and […] Glutamax. Nude female Balb/C mice (20-25 g body weight, Charles River Laboratories) were inoculated subcutaneously with 5×10^6 cells in 100 μL sterile PBS.
Nude female mice (n=4-6) bearing LS174T xenografts (0.38±0.23 g) were injected ^125I-CC49-TCO (t=0, 100 μg/100 μl per mouse) followed by (a) one 160 μg/100 μl dose of galactose-MSA-tetrazine (12) 48 hours post mAb injection, or (b) two 160 μg/100 μl 12 doses 46 and 48 hours post mAb injection, or (c) two 160 μg/100 μl 12 doses 28 and 48 hours post mAb injection. At 50 hours post mAb injection, the mice received 8.52 μg ^111In-tetrazine and were then sacrificed three hours later, blood was withdrawn by heart puncture and selected organs and tissues were harvested and blotted dry. The blood samples and tissues were weighed, added with 1 mL PBS and the radioactivity was counted in a gamma counter along with standards to determine the % ID/g. The biodistribution data of ^125I-CC49-TCO and ^111In-tetrazine are shown in Table 2 and the ^111In-tetrazine T/organ values are shown in Table 3.

LS174T xenografts [2] = test: Dual isotope biodistribution with different amounts of clearing agent 12 (Example 6); type: in vivo, mice
Protocol: as §1
Nude female mice (n=3-4) bearing LS174T xenografts (0.32±0.16 g) were injected ^125I-CC49-TCO (t=0, 100 μg/100 μl per mouse) followed by 20-200 μg galactose-MSA-tetrazine (12) dissolved in 100 μl saline solution (t=24 hours) and ^111In-labeled 15 (21.3 μg/75 μl per mouse, t=26 hours). At 29 hours post mAb injection, the mice were sacrificed, blood was withdrawn by heart puncture and selected organs and tissues were harvested and blotted dry. The blood samples and tissues were weighed, added with 1 mL PBS and the radioactivity was counted in a gamma counter along with standards to determine the % ID/g (Table 1).

[3] = without clearing agent, 21.3 μg tetrazine/mouse 24 hours post mAb injection; cited from earlier work
[4] = One dose (a): 12 at 48 h post mAb
[5] = Two doses (b): 12 at 46 and 48 h
[6] = Two doses (c): 12 at 28 and 48 h

- ^111In-tetrazine T/organ blood (LS174T xenografts [1]; [4]): 8.2±4.1
- ^111In-tetrazine T/organ bone (LS174T xenografts [1]; [4]): 10.5 ± 6.5
- ^111In-tetrazine T/organ brain (LS174T xenografts [1]; [4]): 148.05 ± 61.18
- ^111In-tetrazine T/organ heart (LS174T xenografts [1]; [4]): 6.7 ± 1.3
- ^111In-tetrazine T/organ kidney (LS174T xenografts [1]; [4]): 2.8 ± 0.3
- ^111In-tetrazine T/organ liver (LS174T xenografts [1]; [4]): 10.9 ± 1.7
- ^111In-tetrazine T/organ lung (LS174T xenografts [1]; [4]): 3.1 ± 0.5
- ^111In-tetrazine T/organ muscle (LS174T xenografts [1]; [4]): 9.2±3.6
- ^111In-tetrazine T/organ spleen (LS174T xenografts [1]; [4]): 11.3 ± 3.3
- ^111In-tetrazine in blood (LS174T xenografts [1]; [4]): 0.40 ± 0.10 % ID/g
- ^111In-tetrazine in bone (LS174T xenografts [1]; [4]): 0.33 ± 0.12 % ID/g
- ^111In-tetrazine in brain (LS174T xenografts [1]; [4]): 0.02 ± 0.00 % ID/g
- ^111In-tetrazine in heart (LS174T xenografts [1]; [4]): 0.45 ± 0.08 % ID/g
- ^111In-tetrazine in kidney (LS174T xenografts [1]; [4]): 1.07 ± 0.10 % ID/g
- ^111In-tetrazine in liver (LS174T xenografts [1]; [4]): 0.27 ± 0.04 % ID/g
- ^111In-tetrazine in lung (LS174T xenografts [1]; [4]): 0.97 ± 0.17 % ID/g
- ^111In-tetrazine in muscle (LS174T xenografts [1]; [4]): 0.35 ± 0.08 % ID/g
- ^111In-tetrazine in spleen (LS174T xenografts [1]; [4]): 0.27 ± 0.04 % ID/g
- ^111In-tetrazine in tumor (LS174T xenografts [1]; [4]): 2.98 ± 0.51 % ID/g
- ^111In-tetrazine T/organ blood (LS174T xenografts [1]; [5]): 15.2 ± 4.1
- ^111In-tetrazine T/organ bone (LS174T xenografts [1]; [5]): 16.7 ± 6.7
- ^111In-tetrazine T/organ brain (LS174T xenografts [1]; [5]): 222.2 ± 73.6
- ^111In-tetrazine T/organ heart (LS174T xenografts [1]; [5]): 25.6 ± 12.0
- ^111In-tetrazine T/organ kidney (LS174T xenografts [1]; [5]): 1.6 ± 0.6
- ^111In-tetrazine T/organ liver (LS174T xenografts [1]; [5]): 11.5 ± 3.7
- ^111In-tetrazine T/organ lung (LS174T xenografts [1]; [5]): 8.5 ± 4.2
- ^111In-tetrazine T/organ muscle (LS174T xenografts [1]; [5]): 19.3 ± 9.2
- ^111In-tetrazine T/organ spleen (LS174T xenografts [1]; [5]): 15.1 ± 4.9
- ^111In-tetrazine in blood (LS174T xenografts [1]; [5]): 0.10 ± 0.02 % ID/g
- ^111In-tetrazine in bone (LS174T xenografts [1]; [5]): 0.10 ± 0.02 % ID/g
- ^111In-tetrazine in brain (LS174T xenografts [1]; [5]): 0.01 ± 0.00 % ID/g
- ^111In-tetrazine in heart (LS174T xenografts [1]; [5]): 0.07 ± 0.02 % ID/g
- ^111In-tetrazine in kidney (LS174T xenografts [1]; [5]): 0.95 ± 0.06 % ID/g
- ^111In-tetrazine in liver (LS174T xenografts [1]; [5]): 0.13 ± 0.01 % ID/g
- ^111In-tetrazine in lung (LS174T xenografts [1]; [5]): 0.20 ± 0.07 % ID/g
- ^111In-tetrazine in muscle (LS174T xenografts [1]; [5]): 0.09 ± 0.03 % ID/g
- ^111In-tetrazine in spleen (LS174T xenografts [1]; [5]): 0.10 ± 0.00 % ID/g
- ^111In-tetrazine in tumor (LS174T xenografts [1]; [5]): 1.52 ± 0.48 % ID/g
- ^111In-tetrazine T/organ blood (LS174T xenografts [1]; [6]): 89.0±14.3
- ^111In-tetrazine T/organ bone (LS174T xenografts [1]; [6]): 93.5 ± 19.7
- ^111In-tetrazine T/organ brain (LS174T xenografts [1]; [6]): 750.2 ± 87.5
- ^111In-tetrazine T/organ heart (LS174T xenografts [1]; [6]): 82.9 ± 21.3
- ^111In-tetrazine T/organ kidney (LS174T xenografts [1]; [6]): 3.7 ± 0.8
- ^111In-tetrazine T/organ liver (LS174T xenografts [1]; [6]): 32.3 ± 5.9
- ^111In-tetrazine T/organ lung (LS174T xenografts [1]; [6]): 27.9 ± 7.0
- ^111In-tetrazine T/organ muscle (LS174T xenografts [1]; [6]): 146.3±30.3
- ^111In-tetrazine T/organ spleen (LS174T xenografts [1]; [6]): 42.4 ± 7.7
- ^111In-tetrazine in blood (LS174T xenografts [1]; [6]): 0.05 ± 0.00 % ID/g
- ^111In-tetrazine in bone (LS174T xenografts [1]; [6]): 0.05 ± 0.01 % ID/g
- ^111In-tetrazine in brain (LS174T xenografts [1]; [6]): 0.01 ± 0.00 % ID/g
- ^111In-tetrazine in heart (LS174T xenografts [1]; [6]): 0.05 ± 0.01 % ID/g
- ^111In-tetrazine in kidney (LS174T xenografts [1]; [6]): 1.18 ± 0.13 % ID/g
- ^111In-tetrazine in liver (LS174T xenografts [1]; [6]): 0.13 ± 0.01 % ID/g
- ^111In-tetrazine in lung (LS174T xenografts [1]; [6]): 0.16 ± 0.03 % ID/g
- ^111In-tetrazine in muscle (LS174T xenografts [1]; [6]): 0.03 ± 0.00 % ID/g
- ^111In-tetrazine in spleen (LS174T xenografts [1]; [6]): 0.10 ± 0.01 % ID/g
- ^111In-tetrazine in tumor (LS174T xenografts [1]; [6]): 4.30 ± 0.50 % ID/g
- ^111In-tetrazine T/B (LS174T xenografts [2]; 12 dose 20 μg/mouse): 4.5 ± 0.5
- ^111In-tetrazine Tumor (LS174T xenografts [2]; 12 dose 20 μg/mouse): 3.7 ± 0.8 % ID/g
- ^111In-tetrazine T/B (LS174T xenografts [2]; 12 dose 45 μg/mouse): 4.8 ± 0.3
- ^111In-tetrazine Tumor (LS174T xenografts [2]; 12 dose 45 μg/mouse): 4.1 ± 1.3 % ID/g
- ^111In-tetrazine T/B (LS174T xenografts [2]; 12 dose 80 μg/mouse): 9.2 ± 1.6
- ^111In-tetrazine Tumor (LS174T xenografts [2]; 12 dose 80 μg/mouse): 3.8 ± 1.1 % ID/g
- ^111In-tetrazine T/B (LS174T xenografts [2]; 12 dose 120 μg/mouse): 11.5 ± 4.2
- ^111In-tetrazine Tumor (LS174T xenografts [2]; 12 dose 120 μg/mouse): 3.0 ± 0.8 % ID/g
- ^111In-tetrazine T/B (LS174T xenografts [2]; 12 dose 160 μg/mouse): 31.6 ± 10.5
- ^111In-tetrazine Tumor (LS174T xenografts [2]; 12 dose 160 μg/mouse): 5.1 ± 1.4 % ID/g
- ^111In-tetrazine T/B (LS174T xenografts [2]; 12 dose 200 μg/mouse): 19.2 ± 3.0
- ^111In-tetrazine Tumor (LS174T xenografts [2]; 12 dose 200 μg/mouse): 3.6 ± 0.9 % ID/g
SMILES: O=C([O-])CN1CCN(CC(=O)[O-])CCN(CC(=O)NCCOCCOCCOCCOCCOCCOCCOCCOCCOCCOCCOCCNC(=O)CCCC(=O)Nc2ccc(-c3nnc(-c4ccccn4)nn3)nc2)CCN(CC(=O)[O-])CC1.[111In+3] [^111In-tetrazine]
- T/blood ratio [3]: 2.2±0.5
